Measurements: patent US11312737B2, “Amide-linked EP4 agonist-bisphosphonate compounds and uses thereof” (SIMON FRASER UNIVERSITY, priority 2015, dated 2022)

Assays:
[1] = Stability of conjugate compounds in rat plasma; conditions: fresh rat plasma, 37° C., 100 μg/mL
Procedure: The amide-linked conjugate compounds were examined for their stability in rat plasma. […] The mixture was then incubated at 37° C. for 24 h. Aliquots of 10 μL were removed at 0, 2, 4, 6, 7 and 24 h, mixed to 10 mg of bone powder and 10-fold diluted with water in a 0.6 mL Eppendorf tube. A gentle stirring was applied for 20 min. 50 μL were then used to count the activity.

[2] = In vivo uptake and release studies of tritium labelled C3-conjugate over 28 days; conditions: rat
Procedure: In vivo uptake and release studies using tritium labelled C3-conjugate compound were performed. After intravenous dosing of 1-5 μCi/5 mg/kg of [^3H]-C3 to 15 rats, groups of 3 rats were euthanized at each time point a at t=6 h, 24 h, 7 d, 14 d, 28 d). The radioactivity in blood samples, spleen, liver and long bones was counted for each group of rats. […] After one week, 53% of label was eliminated and only traces were detected after 28 days (FIG. 6). In spleen, the counted radioactivity decreased from 1% 6 hours after dosing to 0.4% at t=28 days (FIG. 6).

[3] = In vivo uptake studies of tritium labelled C3, C4 and C5-conjugates 6 hours after dosing; conditions: rat; for % of the initial dose found in muscle: 6 hours after dosing; for uptake into long bones, % of initial dose: 6 hours after injection, tritium label
Procedure: The three conjugate compounds, C3, C4 and C5, were radiolabelled with tritium in the EP4 agonist moiety and used to monitor in vivo distribution in rat organs and uptake into bone after intravenous dosing.
The radioactivity in organs (heart, kidney, brain, muscle, one piece of muscle attached to bone, spleen and liver) was counted 6 hours after dosing (FIG. 3). For the C3-conjugate compound, calculations were done based on results obtained from two rats. Most of the labelled conjugate compounds were taken up into liver (65-74%), and about 1% and 0.2% were found in spleen and kidneys for all labelled conjugate compounds, after 6 hours. About 0.2% of the initial dose of the C4 and C5-conjugate compounds, and 2% of the C3-conjugate compound, was found in muscle. All other organs contained 0.05% of the initial dose of the conjugate compounds.
Finally, the uptake of the tritiated C3, C4 and C5-conjugate compounds into bones was counted (FIG. 4). All three conjugate compounds were well taken up into bone.

[4] = tested on: leukocytes; assay: Neutrophil function effects; assay type: cell-based; conditions: for neutrophil speed / activity in leukocytes (neutrophil function): FIG. 13

Compound: CCOC(=O)CCCCCCN1C(=O)CC[C@@H]1/C=C/[C@@H](OC(=O)Cc1ccc(C(=O)NCCCC(O)(P(=O)(O)O)P(=O)(O)O)cc1)C(F)(F)c1ccccc1 [C3-conjugate, Sodium (4-(4-(2-(((R,E)-4-((R)-1-(7-ethoxy-7-oxoheptyl)-5-oxopyrrolidin-2-yl)-1,1-difluoro-1-phenylbut-3-en-2-yl)oxy)-2-oxoethyl)benzamido)-1-hydroxybutane-1,1-diyl)bis(hydrogen phosphonate)]
- hydrolysis after 24 h-incubation [1]: About 10%
- counted radioactivity in spleen ([2]; 6 hours after dosing): 1%
- tritiated conjugate found in liver ([2]; 6 hours after injection): 69%
- tritiated conjugate in liver ([2]; after 24 hours): remained in a high proportion
- conjugate remained attached to bone ([2]; after 7 days, tritium label): 5.5%
- tritiated conjugate in liver ([2]; after 28 days): only traces
- label eliminated from liver ([2]; after one week): 53%
- half-life (tritium label on bone) ([2]; calculated from bone data over 28 days): about 8 days
- % of the initial dose observed in bone ([2]; end of the study (28 days), tritium label): 1.4%
- activity detected in the bloodstream ([2]; over 28 days, tritium label): Very low activity
- counted radioactivity in spleen ([2]; t=28 days): 0.4%
- clearance from plasma ([2]; tritium label): rapid clearance
- % of the initial dose found in muscle [3]: ~2%
- neutrophil speed [4]: low neutrophil speed

Compound: CCOC(=O)CCCCCCN1C(=O)CC[C@@H]1/C=C/[C@@H](OC(=O)Cc1ccc(C(=O)NCCC(O)(P(=O)(O)O)P(=O)(O)O)cc1)C(F)(F)c1ccccc1 [C4-conjugate, Sodium (3-(4-(2-(((R,E)-4-((R)-1-(7-ethoxy-7-oxoheptyl)-5-oxopyrrolidin-2-yl)-1,1-difluoro-1-phenylbut-3-en-2-yl)oxy)-2-oxoethypbenzamido)-1-hydroxypropane-1,1-diyl)bis(hydrogen phosphonate)]
- % of the initial dose found in muscle [3]: About 0.2%
- uptake into long bones, % of initial dose [3]: about 10%
- activity in leukocytes (neutrophil function) [4]: active

Compound: CCOC(=O)CCCCCCN1C(=O)CC[C@@H]1/C=C/[C@@H](OC(=O)Cc1ccc(C(=O)NCCCCCC(O)(P(=O)(O)O)P(=O)(O)O)cc1)C(F)(F)c1ccccc1 [C5-conjugate, Sodium (6-(4-(2-(((R,E)-4-((R)-1-(7-ethoxy-7-oxoheptyl)-5-oxopyrrolidin-2-yl)-1,1-difluoro-1-phenyibut-3-en-2-yl)oxy)-2-oxoethyl)benzamido)-1-hydroxyhexane-1,1-diyl)bis(hydrogen phosphonate)]
- % of the initial dose found in muscle [3]: About 0.2%
- uptake into long bones, % of initial dose [3]: about 10%

Compound: CCOC(=O)CCCCCCN1C(=O)CC[C@@H]1/C=C/[C@@H](O)C(F)(F)c1ccccc1 [EP4 agonist, ethyl 7-((R)-2-((R,E)-4,4-difluoro-3-hydroxy-4-phenylbut-1-en-1-yl)-5-oxopyrrolidin-1-yl)heptanoate]
- neutrophil speed [4]: low neutrophil speed

Compound: NCCCC(O)(P(=O)(O)O)P(=O)(O)O [alendronate, 4-amino-1-hydroxybutylidene-1,1-bisphosphonic acid monosodium trihydrate, reference compound]
- activity in leukocytes (neutrophil function) [4]: active

Compound: O=C(O)Cc1ccc(C(=O)NCCCC(O)(P(=O)(O)O)P(=O)(O)O)cc1 [fragment 4, Sodium 2-(4-((4-hydroxy-4,4-bis(hydroxyoxidophosphoryl)butyl)carbamoyl)phenyl)acetate]
- biological activity compared to alendronate alone [4]: biologically inactive
- activity in leukocytes (neutrophil function) [4]: neither fragment 4 nor 5 exhibited significant activity

Compound: O=C(O)Cc1ccc(C(=O)NCCC(O)(P(=O)(O)O)P(=O)(O)O)cc1 [fragment 5, Sodium2-(4-((3-hydroxy-3,3-bis(hydroxyoxidophosphoryl)propyl)carbamoyl)phenyl)acetate]
- activity in leukocytes (neutrophil function) [4]: neither fragment 4 nor 5 exhibited significant activity

Compound: NCCC(O)(P(=O)(O)O)P(=O)(O)O [pamidronate, 3-amino-1-hydroxypropylidene-1,1-bisphosphonic acid, reference compound]
- activity in leukocytes (neutrophil function) [4]: active
